Laboratory results: US20140206681A1, “BTK INHIBITORS” (priority 2013, published 2014)
Where two headings read alike, the source gives them in different places.

Columns and labels:
[1] = biological target: T1, BTK enzyme (recombinant full-length BTK, hBTK) (Homo sapiens, UniProt Q06187); test: BTK enzyme activity assay, LANCE TR-FRET; format: biochemical; details: 50 pM hBTK, 2 μM biotin-A5-peptide, 25 μM ATP; 60 min compound & enzyme incubation; read-out: IC50 BTK activity value
T1 construct: recombinant protein from baculovirus-transfected Sf9 cells: full-length BTK, 6HIS-tag cleaved; 6HIS (cleaved yes); made in house; host or cells: baculovirus-transfected Sf9 cells
T1 sequence (Q06187 whole entry): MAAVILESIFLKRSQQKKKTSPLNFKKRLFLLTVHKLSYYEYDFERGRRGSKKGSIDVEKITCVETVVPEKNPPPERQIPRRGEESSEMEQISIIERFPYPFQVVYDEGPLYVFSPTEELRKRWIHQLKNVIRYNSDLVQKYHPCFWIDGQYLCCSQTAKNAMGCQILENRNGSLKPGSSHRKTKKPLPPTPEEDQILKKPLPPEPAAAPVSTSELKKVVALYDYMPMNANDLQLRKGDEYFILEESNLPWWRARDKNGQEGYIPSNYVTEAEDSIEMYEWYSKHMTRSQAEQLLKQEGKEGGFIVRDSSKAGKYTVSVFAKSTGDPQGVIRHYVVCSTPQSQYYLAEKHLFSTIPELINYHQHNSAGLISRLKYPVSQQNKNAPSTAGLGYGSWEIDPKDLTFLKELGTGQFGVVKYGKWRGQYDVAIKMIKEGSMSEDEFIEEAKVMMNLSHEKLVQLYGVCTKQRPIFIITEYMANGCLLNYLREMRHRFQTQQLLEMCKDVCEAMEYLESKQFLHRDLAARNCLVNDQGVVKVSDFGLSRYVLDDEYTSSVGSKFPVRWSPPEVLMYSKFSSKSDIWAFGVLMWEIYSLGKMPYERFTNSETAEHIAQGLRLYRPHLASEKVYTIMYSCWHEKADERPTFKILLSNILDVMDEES

HeLa cells = test: [3H]Adenosine uptake functional cellular assay; format: cell-based; details: accumulation of [3H]adenosine into HeLa cells, compound range 10 μM to […], read-out: Adenosine uptake inhibition IC50
Protocol: Compounds are also screened in an adenosine uptake functional cellular assay using the protocol described below. The adenosine uptake inhibition assay may be used to identify compounds with the potential for a negative cardiovascular side effect.
Adenosine uptake activity was determined by monitoring the accumulation of tritiated adenosine into HeLa cells (ATCC catalog # CCL-2) using a PMT-based radiometric detection instrument. […] These cells were incubated overnight at 37° C. in a humidified atmosphere with 5% (v/v) CO2. After this time the growth medium was removed and replaced with 40 μL assay medium comprising: Hanks balanced salts solution (HBSS; Thermo Fisher Catalog # SH30268.01)+5% (v/v) FBS. […] 40 μL of compound in the assay medium was dispensed into individual wells of the Cytostar-T plates and the plates were incubated for 30 minutes under ambient laboratory conditions. Following this incubation, 20 μL of 500 nM [^3H]adenosine (American Radiolabeled Chemicals Inc. Catalog # ART0287) was added in the assay medium and incubated for a further 60 minutes under ambient laboratory conditions. The amount of radiolabel accumulation was then determined using a Perkin Elmer Topcount NXT microplate reader. In brief, HeLa cells adhere to the bottom of the Cytostar-T plate, uptake of [^3H]adenosine into these cells brings the radiolabel into sufficient proximity to excite the scintillant in the base of the plates. These events are captured by single PMT, time-resolved coincidence counting. IC50 values were determined by 4 parameter robust fit of counts per second values vs. (Log10) compound concentrations.

**Q.** “4-(8-amino-3-((6R,8aS)-3-oxooctahydroindolizin-6-yl)imidazo[1,5-a]pyrazin-1-yl)-3-(2-methoxyethoxy)-N-(4-(trifluoromethyl)pyridin-2-yl)benzamide [Example 199]” was tested. Which IC50 [1] did it give?
**A.** 1.9 nM

**Q.** And the IC50 (HeLa cells)?
**A.** 7090 nM

**Q.** Which IC50 [1] does the source give for `CC1CC(=O)N2C[C@H](c3nc(-c4ccc(C(=O)Nc5cc(C(F)(F)F)ccn5)cc4)c4c(N)nccn34)CC[C@H]12` (stereo in doubt) [Example 63, 4-{8-amino-3-[(1S,6R,8aR)-1-methyl-3-oxooctahydroindolizin-6-yl]imidazo[1,5-a]pyrazin-1-yl}-N-[4-(trifluoromethyl)pyridin-2-yl]benzamide] here?
**A.** 0.058 nM

**Q.** What about the IC50 (HeLa cells; Homo sapiens, HeLa) of the same molecule?
**A.** 71.7 nM

**Q.** What does the source list for `CC1CC(=O)N2C[C@H](c3nc(-c4ccc(C(=O)Nc5cc(C(F)(F)F)ccn5)cc4)c4c(N)nccn34)CC[C@@H]12` (stereo in doubt) [Example 65, 4-{8-amino-3-[(1R,6R,8aS)-1-methyl-3-oxooctahydroindolizin-6-yl]imidazo[1,5-a]pyrazin-1-yl}-N-[4-(trifluoromethyl)pyridin-2-yl]benzamide]?
**A.** IC50 [1]: 0.085 nM; IC50 (HeLa cells; Homo sapiens, HeLa): 132 nM

**Q.** Which IC50 [1] does the source give for `CN1C[C@@H]2CC[C@@H](c3nc(-c4ccc(C(=O)Nc5cc(C(F)(F)F)ccn5)cc4)c4c(N)nccn34)CN2C1=O` [Example 3, 4-(8-amino-3-((6R,8aS)-2-methyl-3-oxooctahydroimidazo[1,5-a]pyridin-6-yl)imidazo[1,5-a]pyrazin-1-yl)-N-(4-(trifluoromethyl)pyridin-2-yl)benzamide] here?
**A.** 7.2 nM

**Q.** What about the IC50 (HeLa cells; Homo sapiens, HeLa) of the same molecule?
**A.** 792 nM

**Q.** How did the IC50 [1] turn out when `Nc1nccn2c([C@@H]3CC[C@H]4CCC(=O)N4C3)nc(-c3ccc(C(=O)Nc4cc(C(F)(F)F)ccn4)cc3)c12` [Example 4, 4-(8-amino-3-((6R,8aS)-3-oxooctahydroindolizin-6-yl)imidazo[1,5-a]pyrazin-1-yl)-N-(4-(trifluoromethyl)pyridin-2-yl)benzamide] was run?
**A.** 0.1 nM

**Q.** What about the IC50 (HeLa cells; Homo sapiens, HeLa) of the same molecule?
**A.** 61.9 nM

**Q.** For `Nc1nccn2c([C@@H]3CC[C@H]4CCC(=O)N4C3)nc(-c3ccc(C(=O)Nc4ccccn4)cc3)c12` [Example 6, 4-(8-amino-3-((6R,8aS)-3-oxooctahydroindolizin-6-yl)imidazo[1,5-a]pyrazin-1-yl)-N-(pyridin-2-yl)benzamide], which IC50 [1] is on record?
**A.** 2 nM

**Q.** What about the IC50 (HeLa cells; Homo sapiens, HeLa) of the same molecule?
**A.** 184 nM

**Q.** Which IC50 [1] does the source give for `Cc1cnc(NC(=O)c2ccc(-c3nc([C@@H]4CC[C@H]5CCC(=O)N5C4)n4ccnc(N)c34)cc2)s1` [Example 8, 4-(8-amino-3-((6R,8aS)-3-oxooctahydroindolizin-6-yl)imidazo[1,5-a]pyrazin-1-yl)-N-(5-methylthiazol-2-yl)benzamide] here?
**A.** 2.2 nM

**Q.** And the IC50 (HeLa cells; Homo sapiens, HeLa)?
**A.** 355 nM

**Q.** Which results are given for `Nc1nccn2c([C@H]3CC[C@@H]4CCC(=O)N4C3)nc(-c3ccc(C(=O)Nc4ccccn4)cc3)c12` [Example 9, 4-(8-amino-3-((6S,8aR)-3-oxooctahydroindolizin-6-yl)imidazo[1,5-a]pyrazin-1-yl)-N-(pyridin-2-yl)benzamide]?
**A.** IC50 [1]: 194 nM; IC50 (HeLa cells; Homo sapiens, HeLa): 287 nM

**Q.** With `Nc1nccn2c([C@H]3CC[C@H]4CCC(=O)N4C3)nc(-c3ccc(C(=O)Nc4cc(C(F)(F)F)ccn4)cc3)c12` [Example 10, 4-(8-amino-3-((6S,8aS)-3-oxooctahydroindolizin-6-yl)imidazo[1,5-a]pyrazin-1-yl)-N-(4-(trifluoromethyl)pyridin-2-yl)benzamide] as the molecule, how does the IC50 [1] read?
**A.** 14.7 nM

**Q.** And the IC50 (HeLa cells; Homo sapiens, HeLa)?
**A.** 1340 nM

**Q.** With `Nc1nccn2c([C@@H]3CC[C@@H]4CCC(=O)N4C3)nc(-c3ccc(C(=O)Nc4cc(C(F)(F)F)ccn4)cc3)c12` [Example 11, 4-(8-amino-3-((6R,8aR)-3-oxooctahydroindolizin-6-yl)imidazo[1,5-a]pyrazin-1-yl)-N-(4-(trifluoromethyl)pyridin-2-yl)benzamide] as the molecule, how does the IC50 [1] read?
**A.** 15.3 nM

**Q.** What about the IC50 (HeLa cells; Homo sapiens, HeLa) of the same molecule?
**A.** 511 nM

**Q.** For `N#Cc1ccnc(NC(=O)c2ccc(-c3nc([C@@H]4CC[C@H]5CCC(=O)N5C4)n4ccnc(N)c34)c(F)c2)c1` [Example 15, 4-{8-amino-3-[(6R,8aS)-3-oxooctahydroindolizin-6-yl]imidazo[1,5-a]pyrazin-1-yl}-N-(4-cyanopyridin-2-yl)-3-fluorobenzamide], which IC50 [1] is on record?
**A.** 0.21 nM

**Q.** What about the IC50 (HeLa cells; Homo sapiens, HeLa) of the same molecule?
**A.** 71.9 nM

**Q.** For `Nc1nccn2c([C@@H]3CC[C@H]4CCC(=O)N4C3)nc(-c3ccc(C(=O)Nc4cc(C5CC5)ccn4)cc3F)c12` [Example 16, 4-{8-amino-3-[(6R,8aS)-3-oxooctahydroindolizin-6-yl]imidazo[1,5-a]pyrazin-1-yl}-N-(4-cyclopropylpyridin-2-yl)-3-fluorobenzamide], which IC50 [1] is on record?
**A.** 0.2 nM

**Q.** And the IC50 (HeLa cells; Homo sapiens, HeLa)?
**A.** 75.1 nM

**Q.** How did the IC50 [1] turn out when `CCc1ccnc(NC(=O)c2ccc(-c3nc([C@@H]4CC[C@H]5CCC(=O)N5C4)n4ccnc(N)c34)cc2)c1` [Example 18, 4-{8-amino-3-[(6R,8aS)-3-oxooctahydroindolizin-6-yl]imidazo[1,5-a]pyrazin-1-yl}-N-(4-ethylpyridin-2-yl)benzamide] was run?
**A.** 0.16 nM

**Q.** And the IC50 (HeLa cells; Homo sapiens, HeLa)?
**A.** 63.5 nM

**Q.** What does the source list for `Nc1nccn2c([C@@H]3CC[C@H]4CCC(=O)N4C3)nc(-c3ccc(C(=O)Nc4cc(C5CC5)ccn4)cc3)c12` [Example 19, 4-{8-amino-3-[(6R,8aS)-3-oxooctahydroindolizin-6-yl]imidazo[1,5-a]pyrazin-1-yl}-N-(4-cyclopropylpyridin-2-yl)benzamide]?
**A.** IC50 [1]: 0.18 nM; IC50 (HeLa cells; Homo sapiens, HeLa): 233 nM

**Q.** What does the source list for `Nc1nccn2c([C@@H]3CC[C@H]4CCC(=O)N4C3)nc(-c3ccc(C(=O)Nc4nccc(C(F)(F)F)n4)cc3)c12` [Example 20]?
**A.** IC50 [1]: 2.2 nM; IC50 (HeLa cells; Homo sapiens, HeLa): 2380 nM

**Q.** Which IC50 [1] does the source give for `CC(F)(F)c1ccnc(NC(=O)c2ccc(-c3nc([C@@H]4CC[C@H]5CCC(=O)N5C4)n4ccnc(N)c34)c(F)c2)c1` [Example 21, 4-{8-amino-3-[(6R,8aS)-3-oxooctahydroindolizin-6-yl]imidazo[1,5-a]pyrazin-1-yl}-N-[4-(1,1-difluoroethyl)pyridin-2-yl]-3-fluorobenzamide] here?
**A.** 0.21 nM

**Q.** What about the IC50 (HeLa cells; Homo sapiens, HeLa) of the same molecule?
**A.** 234 nM

**Q.** What does the source list for `Nc1nccn2c([C@@H]3CC[C@H]4CCC(=O)N4C3)nc(-c3ccc(C(=O)Nc4cc(C(F)(F)F)ccn4)cc3F)c12` [Example 23, 4-{8-amino-3-[(6R,8aS)-3-oxooctahydroindolizin-6-yl]imidazo[1,5-a]pyrazin-1-yl}-3-fluoro-N-[4-(trifluoromethyl)pyridin-2-yl]benzamide]?
**A.** IC50 [1]: 0.11 nM; IC50 (HeLa cells; Homo sapiens, HeLa): 4.13 nM

**Q.** How did the IC50 [1] turn out when `Nc1nccn2c([C@@H]3CC[C@H]4CCC(=O)N4C3)nc(-c3ccc(C(=O)Nc4cc(C(F)(F)F)ccn4)c(F)c3)c12` [Example 24, 4-{8-amino-3-[(6R,8aS)-3-oxooctahydroindolizin-6-yl]imidazo[1,5-a]pyrazin-1-yl}-2-fluoro-N-[4-(trifluoromethyl)pyridin-2-yl]benzamide] was run?
**A.** 0.45 nM

**Q.** What about the IC50 (HeLa cells; Homo sapiens, HeLa) of the same molecule?
**A.** 67 nM

**Q.** For `CN1CC[C@H]2CC[C@H](c3nc(-c4ccc(C(=O)Nc5cc(C(F)(F)F)ccn5)cc4)c4c(N)nccn34)CN2C1=O` [Example 84, 4-(8-amino-3-((4aR,7S)-2-methyl-1-oxooctahydro-1H-pyrido[1,2-c]pyrimidin-7-yl)imidazo[1,5-a]pyrazin-1-yl)-N-(4-(trifluoromethyl)pyridin-2-yl)benzamide], which IC50 (HeLa cells; Homo sapiens, HeLa) is on record?
**A.** 155 nM

**Q.** For `COc1cc(C(=O)Nc2cc(C(F)(F)F)ccn2)ccc1-c1nc([C@@H]2CC[C@H]3CCC(=O)N3C2)n2ccnc(N)c12` [Example 88, 4-(8-amino-3-((6R,8aS)-3-oxooctahydroindolizin-6-yl)imidazo[1,5-a]pyrazin-1-yl)-3-methoxy-N-(4-(trifluoromethyl)pyridin-2-yl)benzamide], which IC50 (HeLa cells; Homo sapiens, HeLa) is on record?
**A.** 699 nM
